# Test results taken from PubChem BioAssay AID1919014 (Molecular Pharmacology Branch, DTP, NCI, 2023).
# “And” between values parts separate entries of the source, which are not always exact repeats. Equal values may be shown once.
# System: NCI-H1341 complex spheroids, percent test/control
# Assay: Anticancer human tumor NCI-H1341 cell line growth inhibition [AhR];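 also: spheroids exposed to agents for seven days before readout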
# Conditions: for viability, T/C: stronger effect = lower value
# Summary of the method: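 Spheroids combined tumor cells with HUVEC endothelial cells and human MSCs as stroma. AhR antagonists were paired with standard or investigational drugs, each dosed in half-log steps down from near clinical Cmax, or from 10 microM where Cmax was unknown.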
# [1] = curve of first compound, second compound 0.1 µM
# [2] = curve of first compound, second compound 0.316 µM
# [3] = curve of first compound, second compound 1 µM
# [4] = curve of first compound, second compound 3.16 µM
# [5] = curve of first compound, second compound 10 µM
smiles,measurement,setting,value
O=C(C=Cn1cnc(-c2cc(C(F)(F)F)cc(C(F)(F)F)c2)n1)NNc1cnccn1 + Cc1ccccc1N=Nc1ccc(NC(=O)c2ccnn2C)c(C)c1,IC50,[1],51.3 nM
same,IC50,[2],49.7 nM
same,IC50,[3],53.6 nM
same,IC50,[4],< 9.49 nM
same,IC50,[5],< 9.49 nM
same,"viability, T/C","second compound 0.1 µM, first compound 0.00949 µM",85.4%
same,"viability, T/C","second compound 0.1 µM, first compound 0.03 µM",63.4%
same,"viability, T/C","second compound 0.1 µM, first compound 0.0949 µM",35.2%
same,"viability, T/C","second compound 0.1 µM, first compound 0.3 µM",12.9%
same,"viability, T/C","second compound 0.1 µM, first compound 0.949 µM",8.66%
same,"viability, T/C","second compound 0.1 µM, first compound 3 µM",7.84%
same,"viability, T/C","second compound 0.316 µM, first compound 0.00949 µM",69.5%
same,"viability, T/C","second compound 0.316 µM, first compound 0.03 µM",59%
same,"viability, T/C","second compound 0.316 µM, first compound 0.0949 µM",38.3%
same,"viability, T/C","second compound 0.316 µM, first compound 0.3 µM",15.2%
same,"viability, T/C","second compound 0.316 µM, first compound 0.949 µM",9.67%
same,"viability, T/C","second compound 0.316 µM, first compound 3 µM",6.9%
same,"viability, T/C","second compound 1 µM, first compound 0.00949 µM",67.7%
same,"viability, T/C","second compound 1 µM, first compound 0.03 µM",66.7%
same,"viability, T/C","second compound 1 µM, first compound 0.0949 µM",34.5%
same,"viability, T/C","second compound 1 µM, first compound 0.3 µM",15.4%
same,"viability, T/C","second compound 1 µM, first compound 0.949 µM",8.51%
same,"viability, T/C","second compound 1 µM, first compound 3 µM",8.16%
same,"viability, T/C","second compound 3.16 µM, first compound 0.00949 µM",47.9%
same,"viability, T/C","second compound 3.16 µM, first compound 0.03 µM",40.7%
same,"viability, T/C","second compound 3.16 µM, first compound 0.0949 µM",30.6%
same,"viability, T/C","second compound 3.16 µM, first compound 0.3 µM",13.2%
same,"viability, T/C","second compound 3.16 µM, first compound 0.949 µM",11.4%
same,"viability, T/C","second compound 3.16 µM, first compound 3 µM",6.99%
same,"viability, T/C","second compound 10 µM, first compound 0.00949 µM",40.7%
same,"viability, T/C","second compound 10 µM, first compound 0.03 µM",35%
same,"viability, T/C","second compound 10 µM, first compound 0.0949 µM",24.2%
same,"viability, T/C","second compound 10 µM, first compound 0.3 µM",15.6%
same,"viability, T/C","second compound 10 µM, first compound 0.949 µM",10.8%
same,"viability, T/C","second compound 10 µM, first compound 3 µM",6.32%
O=C(c1cc(Cc2n[nH]c(=O)c3ccccc23)ccc1F)N1CCN(C(=O)C2CC2)CC1,"viability, T/C",compound 0.0316 µM,97.7% and 93.7% and 111%
same,"viability, T/C",compound 0.1 µM,100% and 83.7% and 108%
same,"viability, T/C",compound 0.316 µM,105% and 87.7% and 90.6%
same,"viability, T/C",compound 1 µM,95.6% and 88% and 110%
same,"viability, T/C",compound 3.16 µM,102% and 86.6% and 83.1%
same,"viability, T/C",compound 10 µM,76.6% and 70.3% and 83.6%
same,IC50,curve of compound,> 10000 nM
Nc1ccccc1NC(=O)c1ccc(CNC(=O)OCc2cccnc2)cc1,"viability, T/C",compound 0.0316 µM,86.1% and 87.6% and 78.7%
same,"viability, T/C",compound 0.1 µM,92.3% and 84.5% and 75%
same,"viability, T/C",compound 0.316 µM,59.9% and 74.8% and 27.3%
same,"viability, T/C",compound 1 µM,24.3% and 40.5% and 16.6%
same,"viability, T/C",compound 3.16 µM,5.76% and 6.13% and 5.26%
same,"viability, T/C",compound 10 µM,0.69% and 0.9% and 0.3%
same,IC50,curve of compound,457 nM and 718 nM and 183 nM
COc1cccc2c1C(=O)c1c(O)c3c(c(O)c1C2=O)CC(O)(C(=O)CO)CC3OC1CC(N)C(O)C(C)O1 (centres undefined) + CC(CO)NC(=O)c1cc(-c2ccc(Cl)cc2)nn(-c2cnn(C)c2)c1=O,IC50,[1],108 nM
same,IC50,[2],< 31.6 nM
same,IC50,[3],103 nM
same,IC50,[4],< 31.6 nM
same,IC50,[5],< 31.6 nM
same,"viability, T/C","second compound 0.1 µM, first compound 0.0316 µM",51%
same,"viability, T/C","second compound 0.1 µM, first compound 0.1 µM",53%
same,"viability, T/C","second compound 0.1 µM, first compound 0.316 µM",32.4%
same,"viability, T/C","second compound 0.1 µM, first compound 1 µM",6.25%
same,"viability, T/C","second compound 0.1 µM, first compound 3.16 µM",0.83%
same,"viability, T/C","second compound 0.1 µM, first compound 10 µM",2.75%
same,"viability, T/C","second compound 0.316 µM, first compound 0.0316 µM",51.3%
same,"viability, T/C","second compound 0.316 µM, first compound 0.1 µM",40.9%
same,"viability, T/C","second compound 0.316 µM, first compound 0.316 µM",28.4%
same,"viability, T/C","second compound 0.316 µM, first compound 1 µM",6.42%
same,"viability, T/C","second compound 0.316 µM, first compound 3.16 µM",0.79%
same,"viability, T/C","second compound 0.316 µM, first compound 10 µM",2.4%
same,"viability, T/C","second compound 1 µM, first compound 0.0316 µM",48.4%
same,"viability, T/C","second compound 1 µM, first compound 0.1 µM",53.3%
same,"viability, T/C","second compound 1 µM, first compound 0.316 µM",30.2%
same,"viability, T/C","second compound 1 µM, first compound 1 µM",4.94%
same,"viability, T/C","second compound 1 µM, first compound 3.16 µM",1.46%
same,"viability, T/C","second compound 1 µM, first compound 10 µM",2.75%
same,"viability, T/C","second compound 3.16 µM, first compound 0.0316 µM",43.9%
same,"viability, T/C","second compound 3.16 µM, first compound 0.1 µM",53.7%
same,"viability, T/C","second compound 3.16 µM, first compound 0.316 µM",26.7%
same,"viability, T/C","second compound 3.16 µM, first compound 1 µM",3.92%
same,"viability, T/C","second compound 3.16 µM, first compound 3.16 µM",3.09%
same,"viability, T/C","second compound 3.16 µM, first compound 10 µM",2.61%
same,"viability, T/C","second compound 10 µM, first compound 0.0316 µM",41.6%
same,"viability, T/C","second compound 10 µM, first compound 0.1 µM",36.8%
same,"viability, T/C","second compound 10 µM, first compound 0.316 µM",15.2%
same,"viability, T/C","second compound 10 µM, first compound 1 µM",0.93%
same,"viability, T/C","second compound 10 µM, first compound 3.16 µM",2.19%
same,"viability, T/C","second compound 10 µM, first compound 10 µM",2.31%
